The text below walks through data of ChEMBL document CHEMBL4385605, “Synthesis and Structure-Affinity Relationships of Spirocyclic Benzopyrans with Exocyclic Amino Moiety” (J Med Chem, 2019).

Activity calls are given as the source filed them. No cut-off for these calls is given here.

In data set [1] the target is T1, Sigma intracellular receptor 2 (Rattus norvegicus, UniProt Q5U3Y7).
T1 sequence (Q5U3Y7 whole entry): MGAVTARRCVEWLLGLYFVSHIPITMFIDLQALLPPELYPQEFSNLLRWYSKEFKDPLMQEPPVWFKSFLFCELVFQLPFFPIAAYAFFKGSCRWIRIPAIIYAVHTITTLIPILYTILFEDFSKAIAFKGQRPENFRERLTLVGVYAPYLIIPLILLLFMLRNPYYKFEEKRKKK
The experiment in a line: Displacement of [3H]-di-o-tolylguanidine from sigma2 receptor in rat liver membranes incubated for 120 mins in the presence of sigma1 receptor ligand (+)-pentazocine by scintillation counting method. Format: cell membranes. A general note: In a radioligand displacement assay an active substance lowers the binding of a labelled ligand.

For the next data set, the target named is Cytochrome P450 2C9 (Homo sapiens, UniProt P11712). The data set is described as follows: Inhibition of recombinant human CYP2C9 at 1 uM by fluorescence assay. It is filed as ADME. To be noted: recombinant enzyme.
Data set [2] has as its target T2, Alpha-2A adrenergic receptor (Homo sapiens) (UniProt P08913).
T2 sequence (whole entry): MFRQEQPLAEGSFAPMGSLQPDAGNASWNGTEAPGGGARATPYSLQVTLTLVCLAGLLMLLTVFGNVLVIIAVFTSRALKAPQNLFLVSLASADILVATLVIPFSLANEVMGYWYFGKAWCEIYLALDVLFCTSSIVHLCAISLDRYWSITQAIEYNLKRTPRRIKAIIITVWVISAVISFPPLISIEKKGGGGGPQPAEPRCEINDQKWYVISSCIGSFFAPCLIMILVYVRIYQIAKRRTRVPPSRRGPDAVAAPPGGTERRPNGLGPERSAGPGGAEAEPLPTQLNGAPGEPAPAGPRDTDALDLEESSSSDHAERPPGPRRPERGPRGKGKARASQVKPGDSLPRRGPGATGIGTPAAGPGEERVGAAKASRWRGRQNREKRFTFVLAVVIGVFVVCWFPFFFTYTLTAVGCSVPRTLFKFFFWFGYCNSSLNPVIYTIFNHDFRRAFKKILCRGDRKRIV
The experiment in a line: Binding affinity to alpha 2a adrenergic receptor (unknown origin) at 1 uM relative to control.

In the next data set the target is T3, Cytochrome P450 1A2 (Homo sapiens, UniProt P05177).
T3 sequence (P05177 whole entry): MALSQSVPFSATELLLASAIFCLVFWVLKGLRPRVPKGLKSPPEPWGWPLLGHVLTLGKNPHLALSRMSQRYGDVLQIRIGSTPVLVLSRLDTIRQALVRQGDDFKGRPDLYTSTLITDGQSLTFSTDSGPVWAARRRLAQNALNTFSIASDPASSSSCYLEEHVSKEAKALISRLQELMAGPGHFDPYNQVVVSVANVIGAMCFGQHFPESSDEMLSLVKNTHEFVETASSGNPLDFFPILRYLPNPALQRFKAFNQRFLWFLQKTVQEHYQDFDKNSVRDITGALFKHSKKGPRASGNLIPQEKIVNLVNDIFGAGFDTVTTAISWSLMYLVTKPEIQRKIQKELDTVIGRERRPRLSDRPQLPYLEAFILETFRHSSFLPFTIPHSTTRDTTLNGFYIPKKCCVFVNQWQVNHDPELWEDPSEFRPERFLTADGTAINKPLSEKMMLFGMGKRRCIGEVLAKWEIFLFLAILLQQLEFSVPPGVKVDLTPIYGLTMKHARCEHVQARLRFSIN
The data set is described as follows: Inhibition of recombinant human CYP1A2 at 1 uM by fluorescence assay. Format: ADME. To be noted: recombinant enzyme.

The target in data set [3] is Sigma non-opioid intracellular receptor 1 (Cavia porcellus, UniProt Q60492). The data set is described as follows: Displacement of [3H](+)-pentazocine from sigma 1 receptor in guinea pig brain cortex membranes after 120 mins by scintillation counting analysis. It is filed as cell membranes.
The next data set deals with Cytochrome P450 2C19 (Homo sapiens, UniProt P33261). The experiment in a line: Inhibition of recombinant human CYP2C19 at 1 uM by fluorescence assay. Format: ADME. Particulars: recombinant enzyme.
For the next data set, the species on record is Sus scrofa. The data set is described as follows: Displacement of [3H]-(+)-MK-801 from PCP binding site of NMDA receptor in pig brain cortex membranes up to 1 uM after 120 mins by scintillation counting analysis. It is filed as cell membranes.
Data set [4] deals with Sodium-dependent noradrenaline transporter (Homo sapiens) (UniProt P23975). The experiment in a line: Binding affinity to noradrenaline transporter (unknown origin) at 1 uM.
In data set [5] the target is Kappa-type opioid receptor (Cavia porcellus) (UniProt P41144). The experiment in a line: Displacement of [3H]U69,593 from kappa opioid receptor in guinea pig brain membrane at 1 uM after 120 mins by scintillation counting analysis relative to control. Format: cell membranes.
The target in data set [6] is 5-hydroxytryptamine receptor 2B (Homo sapiens) (UniProt P41595). The experiment in a line: Binding affinity to 5-HT2BR (unknown origin) at 1 uM relative to control.
The target in a further data set is Mu-type opioid receptor (Cavia porcellus, UniProt P97266). The experiment in a line: Displacement of [3H]DAMGO from mu opioid receptor in guinea pig brain membranes after 120 mins by scintillation counting analysis. It is filed as cell membranes.
In data set [7] the target is T4, 5-hydroxytryptamine receptor 1A (Homo sapiens) (UniProt P08908).
T4 sequence (whole entry): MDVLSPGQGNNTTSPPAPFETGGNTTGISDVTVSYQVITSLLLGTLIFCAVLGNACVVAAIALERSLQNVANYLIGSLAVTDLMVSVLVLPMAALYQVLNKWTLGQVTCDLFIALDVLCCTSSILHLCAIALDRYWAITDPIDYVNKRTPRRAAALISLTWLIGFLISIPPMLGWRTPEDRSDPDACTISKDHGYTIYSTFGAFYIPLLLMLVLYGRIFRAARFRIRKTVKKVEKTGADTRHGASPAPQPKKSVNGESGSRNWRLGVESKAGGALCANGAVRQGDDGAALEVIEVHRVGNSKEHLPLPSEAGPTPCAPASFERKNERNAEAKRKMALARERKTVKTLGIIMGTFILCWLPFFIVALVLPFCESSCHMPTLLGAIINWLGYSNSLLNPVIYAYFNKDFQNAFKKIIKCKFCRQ
The data set is described as follows: Binding affinity to 5-HT1AR (unknown origin) at 1 uM relative to control.

Data set [8] addresses Delta-type opioid receptor (Rattus norvegicus, UniProt P33533). The data set is described as follows: Displacement of [3H]DPDPE from delta opioid receptor in rat membranes after 120 mins by scintillation counting analysis. Format: cell membranes.
The next data set addresses CYP2D6 (Homo sapiens, UniProt P10635). The experiment in a line: Inhibition of recombinant human CYP2D6 at 1 uM by fluorescence assay relative to control. It is filed as ADME.
For data set [9], the target named is Sigma non-opioid intracellular receptor 1 (Homo sapiens, UniProt Q99720). The data set is described as follows: Displacement of [3H](+)-pentazocine from sigma 1 receptor in human RPMI8226 cell membranes incubated for 2 hrs under shaking by scintillation counting analysis.
In data set [10] the target is Sigma non-opioid intracellular receptor 1 (Rattus norvegicus) (UniProt Q9R0C9). The experiment in a line: Antagonist activity at sigma 1 receptor in rat PC12 cells assessed as suppression of opipramol-induced inhibition of KCl-stimulated intracellular calcium influx at 10 nM preincubated for 5 mins followed by opipramol addition for 5 mins and subsequent KCl-stimulation by fura-2-AM dye based fluorescence assay. It is filed as cell-based. A general note: Calcium assays in cells follow changes in intracellular calcium, usually with a dye or a luminescent sensor.

For another data set, the system named is HepG2. The data set is described as follows: Cytotoxicity against human HepG2 cells at 1 to 100 uM incubated for 20 hrs under serum free condition by MTT assay. It is filed as cell-based. To be noted: hepg2, 20 h.
Data set [11] concerns the target Sigma non-opioid intracellular receptor 1 (Rattus norvegicus) (UniProt Q9R0C9). The experiment in a line: Agonist activity at sigma 1 receptor in rat PC12 cells assessed as effect on KCl-induced intracellular calcium flux by fura-2-AM dye based fluorescence assay. It is filed as cell-based.

Chain of Sigma non-opioid intracellular receptor 1 (Rattus norvegicus) (Q9R0C9 whole entry): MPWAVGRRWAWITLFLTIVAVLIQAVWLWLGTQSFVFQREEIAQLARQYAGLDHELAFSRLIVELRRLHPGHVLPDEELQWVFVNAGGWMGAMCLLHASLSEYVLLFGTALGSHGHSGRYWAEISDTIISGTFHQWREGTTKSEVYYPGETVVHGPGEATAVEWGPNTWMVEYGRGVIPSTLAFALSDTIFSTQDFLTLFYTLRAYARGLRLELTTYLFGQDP
Chain of Sigma non-opioid intracellular receptor 1 (Homo sapiens, UniProt Q99720) (Q99720 whole entry): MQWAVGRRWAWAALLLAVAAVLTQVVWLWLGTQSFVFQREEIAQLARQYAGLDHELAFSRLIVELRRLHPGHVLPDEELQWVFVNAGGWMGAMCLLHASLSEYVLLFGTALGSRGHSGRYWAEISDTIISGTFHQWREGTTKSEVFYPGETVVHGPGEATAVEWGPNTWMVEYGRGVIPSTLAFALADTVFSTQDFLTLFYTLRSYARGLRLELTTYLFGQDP
Chain of Cytochrome P450 2C9 (P11712 whole entry): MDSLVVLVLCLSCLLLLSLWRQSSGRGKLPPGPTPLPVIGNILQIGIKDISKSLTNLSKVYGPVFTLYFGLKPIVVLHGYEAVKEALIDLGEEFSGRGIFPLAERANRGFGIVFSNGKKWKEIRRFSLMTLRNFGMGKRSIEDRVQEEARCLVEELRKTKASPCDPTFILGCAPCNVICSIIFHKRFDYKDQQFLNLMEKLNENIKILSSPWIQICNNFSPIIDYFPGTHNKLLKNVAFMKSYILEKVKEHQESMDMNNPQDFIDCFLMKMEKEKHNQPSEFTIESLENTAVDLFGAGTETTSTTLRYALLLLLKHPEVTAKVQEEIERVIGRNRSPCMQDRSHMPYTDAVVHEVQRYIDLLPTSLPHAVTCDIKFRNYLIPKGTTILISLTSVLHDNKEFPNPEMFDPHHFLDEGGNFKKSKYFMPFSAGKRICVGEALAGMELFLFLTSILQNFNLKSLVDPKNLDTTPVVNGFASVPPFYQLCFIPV
Chain of 5-hydroxytryptamine receptor 2B (Homo sapiens) (P41595 whole entry): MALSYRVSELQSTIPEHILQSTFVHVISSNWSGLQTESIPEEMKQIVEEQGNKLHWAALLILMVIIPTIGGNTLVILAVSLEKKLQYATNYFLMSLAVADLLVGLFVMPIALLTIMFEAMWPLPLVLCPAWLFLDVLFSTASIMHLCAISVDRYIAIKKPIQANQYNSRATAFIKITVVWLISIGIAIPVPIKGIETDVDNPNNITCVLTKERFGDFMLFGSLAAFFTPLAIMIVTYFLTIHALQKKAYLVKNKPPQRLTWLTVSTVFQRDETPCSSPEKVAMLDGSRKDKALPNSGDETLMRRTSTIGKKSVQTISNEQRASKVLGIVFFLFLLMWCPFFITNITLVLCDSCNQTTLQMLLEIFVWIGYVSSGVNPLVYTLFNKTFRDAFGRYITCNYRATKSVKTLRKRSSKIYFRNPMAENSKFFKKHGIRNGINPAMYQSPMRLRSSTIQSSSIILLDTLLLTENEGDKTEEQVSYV
Chain of Kappa-type opioid receptor (Cavia porcellus) (P41144 whole entry): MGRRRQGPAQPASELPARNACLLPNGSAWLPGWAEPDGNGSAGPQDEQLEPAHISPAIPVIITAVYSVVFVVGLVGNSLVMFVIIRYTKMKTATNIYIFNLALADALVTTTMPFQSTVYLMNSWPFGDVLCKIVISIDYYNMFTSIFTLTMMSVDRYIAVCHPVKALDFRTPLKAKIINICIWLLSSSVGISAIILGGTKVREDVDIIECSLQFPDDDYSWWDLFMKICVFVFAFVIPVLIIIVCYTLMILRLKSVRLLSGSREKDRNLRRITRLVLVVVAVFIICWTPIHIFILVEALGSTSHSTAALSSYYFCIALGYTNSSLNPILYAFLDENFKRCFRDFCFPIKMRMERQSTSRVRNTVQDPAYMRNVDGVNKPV
Chain of Cytochrome P450 2C19 (P33261 whole entry): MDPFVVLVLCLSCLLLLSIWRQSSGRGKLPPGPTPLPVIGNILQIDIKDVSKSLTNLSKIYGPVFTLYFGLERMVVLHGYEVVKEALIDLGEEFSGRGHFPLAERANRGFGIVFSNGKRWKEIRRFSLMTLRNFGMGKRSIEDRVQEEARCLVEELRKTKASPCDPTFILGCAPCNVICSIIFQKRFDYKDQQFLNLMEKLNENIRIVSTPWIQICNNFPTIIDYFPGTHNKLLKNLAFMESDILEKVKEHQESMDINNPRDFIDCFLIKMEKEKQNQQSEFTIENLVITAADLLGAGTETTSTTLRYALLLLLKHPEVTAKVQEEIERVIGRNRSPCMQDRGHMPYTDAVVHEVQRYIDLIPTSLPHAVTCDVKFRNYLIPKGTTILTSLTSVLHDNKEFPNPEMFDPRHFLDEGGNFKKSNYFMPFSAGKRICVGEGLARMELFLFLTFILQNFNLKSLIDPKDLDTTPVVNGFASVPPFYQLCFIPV
Chain of Sigma non-opioid intracellular receptor 1 (Cavia porcellus, UniProt Q60492) (Q60492 whole entry): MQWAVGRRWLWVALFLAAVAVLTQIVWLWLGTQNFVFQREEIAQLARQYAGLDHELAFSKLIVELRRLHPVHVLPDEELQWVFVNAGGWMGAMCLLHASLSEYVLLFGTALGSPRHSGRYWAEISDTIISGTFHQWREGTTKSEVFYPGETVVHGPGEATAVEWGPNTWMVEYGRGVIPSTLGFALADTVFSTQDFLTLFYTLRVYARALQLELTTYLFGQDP
Chain of Delta-type opioid receptor (P33533 whole entry): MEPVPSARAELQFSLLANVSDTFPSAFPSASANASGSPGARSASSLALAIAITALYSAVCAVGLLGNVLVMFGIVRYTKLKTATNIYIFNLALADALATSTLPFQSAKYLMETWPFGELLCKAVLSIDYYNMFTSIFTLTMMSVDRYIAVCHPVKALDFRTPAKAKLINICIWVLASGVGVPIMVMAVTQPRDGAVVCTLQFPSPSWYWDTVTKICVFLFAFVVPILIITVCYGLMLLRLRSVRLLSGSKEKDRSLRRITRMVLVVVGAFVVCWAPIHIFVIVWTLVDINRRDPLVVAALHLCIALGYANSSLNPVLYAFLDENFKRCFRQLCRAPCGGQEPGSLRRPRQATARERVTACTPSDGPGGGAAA
Chain of Sodium-dependent noradrenaline transporter (Homo sapiens) (P23975 whole entry): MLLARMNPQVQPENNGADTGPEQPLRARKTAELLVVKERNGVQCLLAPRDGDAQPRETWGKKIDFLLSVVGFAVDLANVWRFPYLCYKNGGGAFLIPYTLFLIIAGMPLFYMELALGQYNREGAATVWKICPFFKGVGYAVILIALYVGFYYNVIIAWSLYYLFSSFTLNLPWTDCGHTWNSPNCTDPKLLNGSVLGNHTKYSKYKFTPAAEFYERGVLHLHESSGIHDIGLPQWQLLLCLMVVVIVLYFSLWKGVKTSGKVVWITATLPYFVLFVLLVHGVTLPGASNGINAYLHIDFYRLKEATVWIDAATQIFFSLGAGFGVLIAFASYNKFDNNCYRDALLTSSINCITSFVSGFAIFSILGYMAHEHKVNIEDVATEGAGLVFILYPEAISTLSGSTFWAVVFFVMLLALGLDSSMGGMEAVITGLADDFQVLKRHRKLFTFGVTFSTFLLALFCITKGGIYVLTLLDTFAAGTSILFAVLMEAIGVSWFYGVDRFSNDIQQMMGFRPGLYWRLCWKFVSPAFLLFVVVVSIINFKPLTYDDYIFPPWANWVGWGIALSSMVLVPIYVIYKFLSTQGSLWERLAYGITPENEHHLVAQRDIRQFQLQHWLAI
Chain of Mu-type opioid receptor (P97266 whole entry): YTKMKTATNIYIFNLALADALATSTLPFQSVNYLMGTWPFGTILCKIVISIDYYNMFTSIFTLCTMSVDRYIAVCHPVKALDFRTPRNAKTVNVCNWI
Chain of CYP2D6 (P10635 whole entry): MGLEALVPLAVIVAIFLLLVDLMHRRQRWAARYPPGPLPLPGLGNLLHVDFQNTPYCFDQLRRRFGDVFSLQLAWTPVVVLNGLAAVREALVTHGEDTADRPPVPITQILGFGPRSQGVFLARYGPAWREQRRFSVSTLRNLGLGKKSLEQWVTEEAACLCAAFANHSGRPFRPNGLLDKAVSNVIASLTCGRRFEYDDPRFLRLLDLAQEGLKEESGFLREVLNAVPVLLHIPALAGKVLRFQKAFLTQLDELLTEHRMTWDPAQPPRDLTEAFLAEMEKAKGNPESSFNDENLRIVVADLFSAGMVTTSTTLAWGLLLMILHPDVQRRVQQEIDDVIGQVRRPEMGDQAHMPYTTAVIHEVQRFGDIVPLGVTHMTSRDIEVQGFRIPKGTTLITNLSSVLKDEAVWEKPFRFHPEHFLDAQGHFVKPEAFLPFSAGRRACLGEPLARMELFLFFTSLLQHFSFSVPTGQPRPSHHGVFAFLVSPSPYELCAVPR

Usually Ki stands for the dissociation constant of the complex between target and ligand, obtained from inhibition or displacement. Usually inhibition stands for the relative decrease from the control value, in per cent. On to `COC1Cc2ccccc2[C@]2(CC[C@H](N(C)CC3CCCCC3)CC2)O1` (stereo partly drawn), for which the Ki is 12 nM in data set [1]; 1.9 nM in data set [3]; 391 nM at Mu-type opioid receptor; 364 nM in data set [8]; 7.3 nM in data set [9]. Besides, the “inhibition (INH)” value at Cytochrome P450 2C9, at Cytochrome P450 1A2 and at Cytochrome P450 2C19 was “Not Active” throughout. The Activity in [2] is 93%; in data set [6], 62%; in [7], 60%; with HepG2, “Non-Toxic”. The outcome (in the data set listed under Sus scrofa; in [4]; in data set [11]) was inactive. Further, the inhibition in data set [5] stood at 0%. Further, the inhibition at 1 µM on CYP2D6 was more than 90%. Besides, in data set [10], the inhibition result was “Active”.
